Results as given in patent US6479469B2, “Treatment of arthritis and compositions therefore” (priority 2000, dated 2002).
Entries after “also recorded” stand apart in the source; their conditions may differ.

Key:
[1] = tested on: experimentally induced inflammatory arthritis in Lewis rats; test: Streptococcal cell wall induced inflammatory arthritis model, clinical assessment of hind legs; assay type: in vivo, rat; conditions: 18 days
Description: The experimental arthritis was induced by injecting cell walls of streptococcal bateria intra-peritoneally into Lewis rats. The resulting arthritis leads to cartilage and bone destruction in the injected rat. This experimental model is considered to provide some of the most useful insights in the development of human inflammatory, destructive arthropathies.
Method: Inflammatory arthritis was induced in Lewis strain rats by a single intra-peritoneal injection of the streptococcal wall pepti-polysaccharide antigen, as described in Brahn E. “Animal models of rheumatoid arthritis. Clues to etiology and treatment.” Clin Orthop. 1991 Apr; (265): 42-53. Review. Van den Broek M F, van Bruggen M C, Simpson S A, Severijnen A J, van de Putte L B, van den Berg W B. “Flare-up reaction of streptococcal cell wall induced arthritis in Lewis and F344 rats: the role of T lymphocytes.” Clin Exp Immunol. 1990 Feb; 79 (2): 297-306. Chen W., Jin W, Cook M, Weiner H L, Wahl S M. “Oral delivery of group A streptococcal cell walls augments circulating TGF-beta and suppresses streptococcal cell wall arthritis.” J Immunol. 1998 Dec. 1; 161 (11): 6297-304. On the same day as the injection, the rats had their drinking water supplemented either with 5 mg or 50 mg of GlcN or GlcNBu in 400 ml of water. There were three rats in each of the above groups. The rats drank the water containing the above compounds in an unrestricted fashion. The drinking water was replenished, when finished, so that the rats drank the same concentrations of the compounds throughout the experimental observation period. Each animal consumed approximately between 20-30 ml of water each day for each of the groups. After 18 days of experimental observation, the rats' hind legs were visually inspected for clinical assessment of the development of arthritis.

[2] = humans, cited from earlier work
[3] = tested on: bovine chondrocytes; conditions: in vitro; cited from earlier work
[4] = tested on: chondrocytes (BAC); test: BAC growth assay (chondrocyte cell proliferation, Coulter count); assay type: cell-based, bovine; conditions: for effect on cell growth: 0-6 mM, serum 20%, FIG. 10; for effect on cell growth / effect on the proliferation of chondrocytes: BAC subculture 6; for effect on the proliferation of chondrocytes: 1 mg/ml, glucose 0.5 mg/ml, TGF-β 10 μg/ml, serum 10%, FIG. 8
Description: Cartilage slices were removed aseptically from bovine knee joint and digested with collagenase to obtain single cell chondrocytes. Both primary cultures and subcultures were established by procedures described previously (Chan C. and Anastassiades T., Biochem Cell Biol 74:233-240, 1996; Howard S. and Anastassiades T., J Rheumatol 20:2083-2094, 1993).For the growth assays, cells were seeded at 15,000 cells/well and 33,000 cells/well for the 24 and 6 well plates, respectively, in glucose free Dulbecco's modified Eagle's culture medium, base which was supplemented with glucose (1 mg/ml) and serum (10%). These cells were incubated in a humidified atmosphere of 95% air and 5% carbon dioxide at 37° C. On the following day, the medium was changed to fresh medium containing test materials of interest. The cells were harvested at time intervals and cell number determined using Coulter counter (Coulter Electronics Inc. Florida, USA). Results are expressed as the means of three replicate wells and each well was counted twice. The data are presented as mean ± SEM.
Initial studies examined the effect of 1 mg/ml of GlcN, GlcNac, GlcNpr and GlcNbu on the proliferation of chondrocytes (BAC subculture 6) maintained in medium supplemented with glucose (0.5 mg/ml), TGF-β (10 μg/ml) and serum (10%). […] The cells barely thrive at serum concentrations lower than 10% (data not shown).
Further experiments were carried out to determine whether the growth stimulation could be due to butyrate group or a mechanism solely dependent on GlcNbu. In this case, chondrocytes (BAC subculture 6) were maintained in culture in the presence of glucose (1 mg/ml), serum (20%) and various concentrations (0-6 mM) of sodium butyrate, GlcNbu and GlcN. […] Therefore, the growth stimulation observed is due to GlcNbu. The effect of GlcNbu at varying glucose medium concentrations (0-0.5 mg/ml) were evaluated using early and late subcultured chondrocytes.

[5] = tested on: Bovine Articular Chondrocytes; test: Glycosaminoglycan synthesis by Bovine Articular Chondrocytes (35S incorporation); assay type: cell-based; conditions: 0.1 mM GlcNBu; 35S label 4 days; per well; control 82,000 CPM; FIG. 14
Description: Bovine articular chondrocytes were grown to confluency in 35 mm wells and labelled with ^35S for 4 days in the presence of different concentrations of GlcNBu. The Glycosaminoglycans (GAG) were isolated from the medium and the radioactivity incorporated into the isolated GAG was determined
With reference to FIG. 14, the results are expressed on a per well basis and represent the means and standard deviations from four replicate wells. […] The control (0 mM concentration of GlcNBu) is the first point on the left indicating 82,000 CPM and the lowest concentration of GlcNBu is 0.1 mM indicating 112,000 CPM.

[6] = tested on: dog with hip dysplasia; test: Dog Study-2, dog with hip dysplasia, daily journal and video record; assay type: in vivo; conditions: 500 mg per day on food, one week
Description: 1 Week administration to arthritic/dysplastic dogs @ 500 mg set daily dose. Daily Journal and Video record was kept as described under Dog Study-1.
The subject was a 16-year-old female labrador crossbreed which had hip dysplasia evident in both hind limbs due to either age or an injury sustained at the age of 9 years.
Phase 1 The MGD was administered at 500 mg per day for a period of one week in a solution poured onto food.

[7] = tested on: mucopolysaccharides (glycosaminoglycans); conditions: Biochem. Pharmacol. (1973) 22:3018; cited from earlier work
[8] = tested on: dog with osteoarthritis due to anterior cruciate ligament injury; test: Dog Study-1, osteoarthritic dog, daily journal and video record; assay type: in vivo
Description: 1 Week administration to arthritic/dysplastic dogs @500 mg set daily dose. A Daily Journal and Video record was kept.
The subject was a 9-year-old female collie crossbreed which had osteoarthritis due to a prior left anterior cruciate ligament injury (a previous tear now repaired). […] The animal is currently medicated with glucosamine at 500 mg per day.
For both Phase 1 and Phase 2 a video diary of a few minutes of two or three of the animal's exercise periods and a daily journal of casual observations was kept.

| Compound | clinical assessment of arthritis in hind legs ([1]; 5 mg in 400 ml drinking water) | clinical assessment of arthritis in hind legs ([1]; 50 mg in 400 ml drinking water) | effect on cell growth ([4]; glucose 1 mg/ml) | effect on the proliferation of chondrocytes [4] | owner-observed mobility / behaviour [6] | other results |
| --- | --- | --- | --- | --- | --- | --- |
| N[C@@H](C=O)[C@@H](O)[C@H](O)[C@H](O)CO [GlcN, 2-amino-2-deoxy-D-glucose, reference compound] | well-developed arthritis with swelling and redness in both of the hind lower legs | well-developed arthritis with swelling and redness in the right lower leg and less so in the left lower leg | decreased cell growth | inhibited cell growth compared to control | – | serum levels after oral or IV administration ([2]; very large doses): serum levels cannot be detected; growth or survival of chondrocytes [3]: does not support growth or even survival of chondrocytes |
| CC(=O)N[C@H]1C(O)O[C@H](CO)[C@@H](O)[C@@H]1O (stereo partly drawn) [GlcNac, N-acetylglucosamine, reference compound] | – | – | – | much reduced effect on cell growth | – | half-life compared to glucosamine ([2]; Clin. Ther. (1996) 18:1184): longer half-life |
| CCCC(=O)N[C@H]1C(O)O[C@H](CO)[C@@H](O)[C@@H]1O (stereo partly drawn) [GlcNbu, N-Butyryl-D-glucosamine (2-n-Butanamido-2-deoxy-D-glucopyranose)] | normal hind lower legs and no clinical evidence of arthritis | minimal swelling in the right lower leg and probably a normal left lower leg | increased cell growth | significantly stimulated cell growth | a period of improvement | radioactivity incorporated into the GAG [5]: 112,000 CPM; cell growth at various serum concentrations ([4]; GlcNbu 0.4-10 mM, glucose 1 mg/ml, 10% vs 20% serum, FIG. 9): more increase in cell growth at 20% than 10% serum; stimulation of cell growth at varying glucose medium concentrations ([4]; glucose 0-0.5 mg/ml, early and late subcultured chondrocytes, FIGS. 11 and 12): higher in the absence of glucose or very low glucose concentration |
| CCC(=O)N[C@H]1C(O)O[C@H](CO)[C@@H](O)[C@@H]1O (stereo partly drawn) [GlcNpr, N-propionylglucosamine] | – | – | – | much reduced effect on cell growth | – | incorporation of labeled glucosamine into mucopolysaccharides [7]: inhibits the incorporation of labeled glucosamine into mucopolysaccharides |
| CCCC(=O)[O-].[Na+] [sodium butyrate, reference compound] | – | – | decreased cell growth | – | – | – |
| N-Butyryl-D-glucosamine (2-n-Butanamido-2-deoxy-D-glucopyranose) [GlcNbu] | – | – | – | – | isolated examples of improvement | tolerability ([8]; 500 mg per day on food, one week): tolerated at least at the same level as glucosamine; adverse reactions ([8]; 500 mg per day, one week): no adverse reactions were observed; protective effects (mobility/stiffness) compared to glucosamine ([8]; Phase 1, 500 mg per day, one week, listed as MGD): at least as good as glucosamine; also recorded: no appreciable difference from baseline; observation after withdrawal ([8]; Phase 2, Day 7 after MGD discontinued, listed as MGD): recurrence of a slight limp; also recorded: much stiffer gait and a slight limp |
